From patent US20250215029A1 (Recludix Pharma, Inc., priority 2022, published 2025)
Like-named read-outs stand apart in the source and are kept apart here.

Assays:
[1] = molecular target: T1, Recombinant STAT3 protein (STAT3 (G127-I722)) (Homo sapiens, UniProt P40763); assay: STAT3 Fluorescence Polarization (FP) Assay; assay type: binding; details: probe 5-FAM-GpYLPQTV-NH2 2 nM, 45-minute incubation
T1 construct: Recombinant STAT3 protein (STAT3 (G127-I722))
How it was run: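 Read-out is fluorescence polarization (mP) after 45 min at room temperature, with IC50 fitted by nonlinear regression against log compound concentration. Mixture: 25 nM STAT3 (G127-I722), 2 nM 5-FAM-GpYLPQTV-NH2 phosphopeptide, 10 mM HEPES pH 7.4 buffer, 1% DMSO.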

[2] = molecular target: T2, Recombinant STAT6 protein (STAT6 (W123-T658)) (Homo sapiens, UniProt P42226); assay: STAT6 Fluorescence Polarization (FP) Assay; assay type: binding; details: 45-minute incubation
T2 construct: Recombinant STAT6 protein (STAT6 (W123-T658))
T2 sequence (P42226 123-658): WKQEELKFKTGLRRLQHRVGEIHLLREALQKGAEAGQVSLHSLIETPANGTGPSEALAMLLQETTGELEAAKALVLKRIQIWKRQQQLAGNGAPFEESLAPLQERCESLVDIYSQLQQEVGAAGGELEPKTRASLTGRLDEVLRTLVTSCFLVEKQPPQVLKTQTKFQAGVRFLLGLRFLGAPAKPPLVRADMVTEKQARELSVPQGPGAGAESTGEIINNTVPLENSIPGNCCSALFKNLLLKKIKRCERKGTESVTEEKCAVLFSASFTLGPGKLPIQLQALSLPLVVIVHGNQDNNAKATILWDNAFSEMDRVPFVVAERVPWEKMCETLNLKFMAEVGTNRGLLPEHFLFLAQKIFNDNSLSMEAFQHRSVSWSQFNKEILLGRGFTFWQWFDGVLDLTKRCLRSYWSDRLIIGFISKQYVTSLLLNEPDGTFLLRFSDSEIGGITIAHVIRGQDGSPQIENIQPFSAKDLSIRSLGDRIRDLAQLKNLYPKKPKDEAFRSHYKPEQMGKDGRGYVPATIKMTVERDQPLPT
How it was run: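 Serially diluted compounds received a premix of STAT6 (W123-T658, 250 nM) and 5-FAM peptide probe (2 nM) in pH 7.4 HEPES buffer containing DTT and Tween 20. Following 45 min at room temperature, FP was recorded. IC50s were fitted by nonlinear regression; values are binned A (≤300 nM), B (>300-3000 nM), C (>3-30 μM), D (>30 μM).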

[3] = STAT3 25 nM, read-out: STAT3 (FP assay IC50)
[4] = STAT6 250 nM, probe 5-FAM-ApYKPFQDLI-NH2 2 nM, read-out: STAT6 (FP assay IC50)
[5] = STAT6 250 nM, probe 5-FAM-Ap[…]-NH2 2 nM, read-out: STAT6 (FP assay IC50)
[6] = STAT3 (G127-I722) 25 nM, read-out: STAT3 (FP assay IC50 class)
[7] = STAT6 (W123-T658) 250 nM, probe 5-FAM-ApYKPFQDLI-NH2 2 nM, read-out: STAT6 (FP assay IC50 class)
[8] = STAT6 (W123-T658) 250 nM, probe 5-FAM-Ap[…]-NH2 2 nM, read-out: STAT6 (FP assay IC50 class)

T1 sequence (P40763 127-722): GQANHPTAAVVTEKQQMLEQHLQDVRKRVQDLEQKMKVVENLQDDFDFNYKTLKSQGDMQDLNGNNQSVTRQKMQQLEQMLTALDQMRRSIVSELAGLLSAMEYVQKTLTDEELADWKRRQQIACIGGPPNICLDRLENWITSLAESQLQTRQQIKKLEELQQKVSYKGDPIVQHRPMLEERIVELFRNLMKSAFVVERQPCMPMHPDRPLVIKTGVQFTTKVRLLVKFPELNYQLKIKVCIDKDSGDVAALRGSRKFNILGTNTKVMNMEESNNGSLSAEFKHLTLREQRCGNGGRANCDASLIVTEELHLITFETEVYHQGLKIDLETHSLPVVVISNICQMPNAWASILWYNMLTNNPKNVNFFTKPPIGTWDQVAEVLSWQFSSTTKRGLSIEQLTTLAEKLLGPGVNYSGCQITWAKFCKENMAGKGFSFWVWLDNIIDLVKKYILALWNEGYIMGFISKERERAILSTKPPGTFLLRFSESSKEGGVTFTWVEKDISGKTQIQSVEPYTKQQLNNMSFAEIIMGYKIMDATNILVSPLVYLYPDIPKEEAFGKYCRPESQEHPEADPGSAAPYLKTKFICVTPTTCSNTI

What does the source list for `N#C[C@H]1CN(C(=O)[C@@H]2CC[C@@H]3CCCC[C@H](NC(=O)c4ccc5ccc(C(F)(F)P(=O)(O)O)cc5c4)C(=O)N32)C[C@@H]1c1cc[nH]c(=O)c1` (single isomer, unassigned) [Compound 80, ((7-(((3S,6S,10aS)-3-((3R,4S or 3S,4R)-3-cyano-4-(2-oxo-1,2-dihydropyridin-4-yl)pyrrolidine-1-carbonyl)-5-oxodecahydropyrrolo [1,2-a]azocin-6-yl)carbamoyl)naphthalen-2-yl)difluoromethyl) phosphonic acid]?
IC50 [1, 3]: 0.1 to 1 µM; IC50 [2, 4]: ≤ 0.3 µM

`N#C[C@H]1CN(C(=O)[C@@H]2CC[C@@H]3CCCC[C@H](NC(=O)c4cc5cc(CP(=O)(O)O)ccc5s4)C(=O)N32)C[C@@H]1c1ccccc1` (single isomer, unassigned) [Compound 90, ((2-(((3S,6S,10aS)-3-((3R,4S or 3S,4R)-3-cyano-4-phenylpyrrolidine-1-carbonyl)-5-oxodecahydropyrrolo [1,2-a]azocin-6-yl)carbamoyl)benzo[b]thiophen-5-yl)methyl) phosphonic acid] was tested. Which IC50 [1, 3] did it give?
Its IC50 is greater than 10 µM.

What about the IC50 [2, 4] of the same molecule?
The IC50 was 0.3 to 3 µM.

What does the source list for `CC1CCC[C@H](NC(=O)c2cc3cc(C(F)(F)P(=O)(O)O)ccc3s2)C(=O)N2[C@@H]1CC[C@H]2C(=O)N1C[C@H](c2cc[nH]c(=O)c2)[C@@H](C#N)C1` (single isomer, unassigned) [Compound 104, ((2-(((3S,6S,10aR)-3-((3R,4S or 3S,4R)-3-cyano-4-(2-oxo-1,2-dihydropyridin-4-yl)pyrrolidine-1-carbonyl)-10-methyl-5-oxodecahydropyrrolo [1,2-a]azocin-6-yl)carbamoyl)benzo[b]thiophen-5-yl)difluoromethyl) phosphonic acid]?
IC50 [1, 3]: 0.1 to 1 µM; IC50 [2, 4]: 0.3 to 3 µM

Which IC50 [1, 3] does the source give for `N#C[C@@H]1CN(C(=O)[C@@H]2C[C@@H](O)[C@@H]3CCCCC[C@H](NC(=O)c4ccc5ccc(C(F)(F)P(=O)(O)O)cc5c4)C(=O)N23)C[C@H]1c1cc[nH]c(=O)c1` (single isomer, unassigned) [Compound 106, ((7-(((1R,3S,6S, 11aS)-3-((3S,4R or 3R,4S)-3-cyano-4-(2-oxo-1,2-dihydropyridin-4-yl)pyrrolidine-1-carbonyl)-1-hydroxy-5-oxodecahydro-1H-pyrrolo[1,2-a]azonin-6-yl)carbamoyl)naphthalen-2-yl)difluoromethyl) phosphonic acid] here?
The IC50 was 1 to 10 µM.

What about the IC50 [2, 5] of the same molecule?
The IC50 was no more than 0.3 µM.

What does the source list for `N#C[C@@H]1CN(C(=O)[C@@H]2CCC[C@@H]3CCC[C@H](NC(=O)c4cc5cc(C(F)(F)P(=O)(O)O)ccc5s4)C(=O)N32)C[C@H]1c1ccccc1` (single isomer, unassigned) [Compound 107, ((2-(((4S,7S,10aS)-4-((3S,4R or 3R,4S)-3-cyano-4-phenylpyrrolidine-1-carbonyl)-6-oxodecahydropyrido [1,2-a]azepin-7-yl)carbamoyl)benzo[b]thiophen-5-yl)difluoromethyl) phosphonic acid]?
IC50 [1, 3]: 0.1 to 1 µM; IC50 [2, 4]: ≤ 0.3 µM

How did the IC50 [1, 3] turn out when `C[C@@H]1C[C@H]2CC[C@@H](C(=O)N3CC(c4cccnc4)C3)N2C(=O)[C@@H](NC(=O)c2cc3cc(C(F)(F)P(=O)(O)O)ccc3s2)C1` (single isomer, unassigned) [Compound 110, (difluoro(2-(((3S,6S,8R,9aR)-8-methyl-5-oxo-3-(3-(pyridin-3-yl)azetidine-1-carbonyl)octahydro-1H-pyrrolo[1,2-a]azepin-6-yl)carbamoyl)benzo[b]thiophen-5-yl)methyl) phosphonic acid or (difluoro(2-(((3S,6S,8S,9aR)-8-methyl-5-oxo-3-(3-(pyridin-3-yl)azetidine-1-carbonyl)octahydro-1H-pyrrolo[1,2-a]azepin-6-yl)carbamoyl)benzo[b]thiophen-5-yl)methyl) phosphonic acid] was run?
The IC50 was less than 0.1 µM.

What about the IC50 [2, 5] of the same molecule?
Its IC50 is 3 to 30 µM.

What does the source list for `CC(C)[C@@H]1CC[C@H](NC(=O)c2cc3cc(C(F)P(=O)(O)O)ccc3s2)C(=O)N2[C@H](CC[C@H]2C(=O)N2C[C@H](c3ccccc3)[C@@H](C#N)C2)C1` (single isomer, unassigned) [Compound 212]?
IC50 [1, 6]: 1 to 10 µM; IC50 [2, 7]: ≤ 0.3 µM

Which IC50 [1, 6] does the source give for `N#C[C@@H]1CN(C(=O)[C@@H]2CC[C@@H]3CCCC[C@H](NC(=O)c4cc5cc(C(F)P(=O)(O)O)ccc5s4)C(=O)N32)C[C@H]1c1ccccc1` (single isomer, unassigned) [Compound 224] here?
Its IC50 is 1 to 10 µM.

And the IC50 [2, 8]?
Its IC50 is no more than 0.3 µM.

For `N#C[C@@H]1CN(C(=O)[C@@H]2CC[C@@H]3CCCC[C@H](NC(=O)c4cc5cc(C(F)P(=O)(O)O)ccc5s4)C(=O)N32)C[C@H]1c1ccccc1` (single isomer, unassigned) [Compound 225], which IC50 [1, 6] is on record?
Its IC50 is 1 to 10 µM.

What about the IC50 [2, 7] of the same molecule?
Its IC50 is no more than 0.3 µM.

`N#C[C@@H]1CN(C(=O)[C@@H]2CC[C@@H]3CCCC[C@H](NC(=O)c4ccc5ccc(C(F)P(=O)(O)O)cc5c4)C(=O)N32)C[C@H]1c1ccccc1` (single isomer, unassigned) [Compound 226] was tested. Which IC50 [1, 6] did it give?
Its IC50 is 1 to 10 µM.

And the IC50 [2, 8]?
The IC50 was no more than 0.3 µM.

Which results are given for `Cn1ccc([C@@H]2CN(C(=O)[C@@H]3CC[C@@H]4CCCC[C@H](NC(=O)c5cc6cc(C(F)P(=O)(O)O)ccc6s5)C(=O)N43)C[C@H]2C#N)cc1=O` (single isomer, unassigned) [Compound 227]?
IC50 [1, 6]: 0.1 to 1 µM; IC50 [2, 8]: 0.3 to 3 µM

Which results are given for `Cn1ccc([C@@H]2CN(C(=O)[C@@H]3CC[C@@H]4CCCC[C@H](NC(=O)c5cc6cc(C(F)P(=O)(O)O)ccc6s5)C(=O)N43)C[C@H]2C#N)cc1=O` (single isomer, unassigned) [Compound 228]?
IC50 [1, 6]: 1 to 10 µM; IC50 [2, 7]: 0.3 to 3 µM

Which IC50 [1, 6] does the source give for `N#C[C@@H]1CN(C(=O)[C@@H]2CC[C@@H]3CCC[C@H](NC(=O)c4cc5cc(C(F)P(=O)(O)O)ccc5s4)C(=O)N32)C[C@H]1c1ccccc1` (single isomer, unassigned) [Compound 232] here?
Its IC50 is 1 to 10 µM.

And the IC50 [2, 8]?
Its IC50 is 0.3 to 3 µM.

What does the source list for `N#C[C@@H]1CN(C(=O)[C@@H]2CC[C@@H]3CCC[C@@H](C4CC4)[C@H](NC(=O)c4cc5cc(C(F)(F)P(=O)(O)O)ccc5s4)C(=O)N32)C[C@H]1c1ccccc1` (single isomer, unassigned) [Compound 234]?
IC50 [1, 6]: 1 to 10 µM; IC50 [2, 8]: ≤ 0.3 µM

For `CC[C@@H]1CC[C@H](NC(=O)c2cc3cc(C(F)P(=O)(O)O)ccc3s2)C(=O)N2[C@H](CC[C@H]2C(=O)N2C[C@@H](C#N)[C@H](c3ccccc3)C2)C1` (single isomer, unassigned) [Compound 235], which IC50 [1, 6] is on record?
The IC50 was 1 to 10 µM.

And the IC50 [2, 8]?
The IC50 was no more than 0.3 µM.

With `CC[C@H]1CC[C@H](NC(=O)c2cc3cc(C(F)P(=O)(O)O)ccc3s2)C(=O)N2[C@H](CC[C@H]2C(=O)N2C[C@@H](C#N)[C@H](c3ccccc3)C2)C1` (single isomer, unassigned) [Compound 237] as the molecule, how does the IC50 [1, 6] read?
Its IC50 is 1 to 10 µM.

And the IC50 [2, 8]?
The IC50 was no more than 0.3 µM.

How did the IC50 [1, 6] turn out when `CC(C)[C@H]1CC[C@H](NC(=O)c2cc3cc(C(F)P(=O)(O)O)ccc3s2)C(=O)N2[C@H](CC[C@H]2C(=O)N2C[C@@H](C#N)[C@H](c3ccccc3)C2)C1` (single isomer, unassigned) [Compound 238] was run?
The IC50 was 1 to 10 µM.

What about the IC50 [2, 8] of the same molecule?
The IC50 was no more than 0.3 µM.

Which results are given for `CCC[C@@H]1CC[C@H](NC(=O)c2cc3cc(C(F)P(=O)(O)O)ccc3s2)C(=O)N2[C@H](CC[C@H]2C(=O)N2C[C@@H](C#N)[C@H](c3ccccc3)C2)C1` (single isomer, unassigned) [Compound 239]?
IC50 [1, 6]: 1 to 10 µM; IC50 [2, 8]: ≤ 0.3 µM

Which results are given for `CCC[C@H]1CC[C@H](NC(=O)c2cc3cc(C(F)P(=O)(O)O)ccc3s2)C(=O)N2[C@H](CC[C@H]2C(=O)N2C[C@@H](C#N)[C@H](c3ccccc3)C2)C1` (single isomer, unassigned) [Compound 240]?
IC50 [1, 6]: 1 to 10 µM; IC50 [2, 8]: ≤ 0.3 µM

Which IC50 [1, 6] does the source give for `O=C(N[C@H]1CCC[C@H]2CC[C@@H](C(=O)N3CC(c4cnccc4F)C3)N2C1=O)c1cc2cc([C@@H](F)P(=O)(O)O)ccc2s1` (single isomer, unassigned) [Compound 599] here?
Its IC50 is less than 0.1 µM.

What about the IC50 [2, 8] of the same molecule?
Its IC50 is 0.3 to 3 µM.

`O=C(N[C@H]1CCC[C@H]2CC[C@@H](C(=O)N3CC(c4cnccc4F)C3)N2C1=O)c1cc2cc([C@H](F)P(=O)(O)O)ccc2s1` (single isomer, unassigned) [Compound 600] was tested. Which IC50 [1, 6] did it give?
Its IC50 is less than 0.1 µM.

And the IC50 [2, 8]?
Its IC50 is 0.3 to 3 µM.

What does the source list for `CN(C)c1ccncc1C1CN(C(=O)[C@@H]2CC[C@@H]3CCC[C@H](NC(=O)c4cc5cc([C@@H](F)P(=O)(O)O)ccc5s4)C(=O)N32)C1` (single isomer, unassigned) [Compound 631]?
IC50 [1, 6]: < 0.1 µM; IC50 [2, 8]: 3 to 30 µM
